From US12599672B2, “KRAS proteolysis targeting chimeras” (PAQ Therapeutics Inc., priority 2023, dated 2026)

Assays:
Assay type in all cases: cell-based
[1] = molecular target: T1, KRAS G12D (Homo sapiens, UniProt P01116, G12D); assay: KRAS G12D HiBit assay; settings: AsPc-1-KRAS (G12D)-HiBit-KI cell, compound treatment for 24 hours, absolute DC50; class symbols
T1 construct: AsPc-1-KRAS (G12D)-HiBit-KI cell (Pharmaron); host or cells: AsPc-1-KRAS (G12D)-HiBit-KI cells (HiBiT knock-in at the endogenous KRAS locus)
Summary of the method: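 Cells were treated for 24 h with compounds in a 3-fold, 10-point dilution series from a 0.3 mM DMSO stock, then equilibrated 15 min at room temperature. KRAS G12D HiBiT levels were read by luminescence after lytic Nano-Glo HiBiT reagent with LgBiT; inhibition calculated relative to 0.1% DMSO high control.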

[2] = molecular target: T2, KRAS G12V (Homo sapiens, UniProt P01116, G12V); assay: KRAS G12V HiBit assay; settings: SW620-KRAS (G12V)-HiBit-KI cells, compound treatment for 24 hours, class symbols
T2 construct: SW620-KRAS (G12V)-HiBit-KI cell (Pharmaron); host or cells: SW620-KRAS (G12V)-HiBit-KI cells (HiBiT knock-in at the endogenous KRAS locus)
Summary of the method: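 HiBiT-tagged KRAS G12V cells treated 24 h with compound in a 3-fold, 10-point series (0.3 mM DMSO stock); lytic HiBiT reagent with LgBiT added after 15 min room-temperature equilibration. Degradation calculated against 0.1% DMSO high control.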

[3] = molecular target: T3, KRAS (Homo sapiens, UniProt P01116); assay: KRASamp MSD assay; settings: KE39 (KRAS amplified) cells, treated with test compounds for 24 hr, MSD readout of KRAS degradation
T3 construct: endogenous in cells; host or cells: KE39 (KRAS amplified) cells
Summary of the method: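 KRAS-amplified KE39 cells treated with compound for 24 hr, then lysed in RIPA buffer with protease/phosphatase inhibitors. KRAS protein measured by MSD sandwich immunoassay against a recombinant WT KRAS standard curve; DC50 derived from curve fitting of degradation.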

T1 sequence (P01116 1-188 isoform P01116-2 G12D): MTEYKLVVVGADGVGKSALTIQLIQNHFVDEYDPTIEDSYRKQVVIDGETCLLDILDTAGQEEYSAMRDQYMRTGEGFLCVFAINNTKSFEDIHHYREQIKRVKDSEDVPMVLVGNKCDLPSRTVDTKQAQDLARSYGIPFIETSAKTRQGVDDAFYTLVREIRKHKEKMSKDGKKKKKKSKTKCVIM
T2 sequence (P01116 1-188 isoform P01116-2 G12V): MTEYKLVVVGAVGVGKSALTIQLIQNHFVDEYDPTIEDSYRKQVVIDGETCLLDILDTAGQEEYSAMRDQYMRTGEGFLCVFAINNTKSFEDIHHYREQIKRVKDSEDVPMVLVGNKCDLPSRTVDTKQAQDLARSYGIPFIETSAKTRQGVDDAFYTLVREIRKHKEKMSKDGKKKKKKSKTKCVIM
T3 sequence (P01116 1-188 isoform P01116-2): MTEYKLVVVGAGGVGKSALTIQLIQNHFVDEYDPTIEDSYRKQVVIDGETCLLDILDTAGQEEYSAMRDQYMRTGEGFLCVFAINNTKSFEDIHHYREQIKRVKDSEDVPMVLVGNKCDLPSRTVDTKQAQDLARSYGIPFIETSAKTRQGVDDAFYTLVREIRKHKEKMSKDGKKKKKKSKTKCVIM

| DC50 [1] [nM] | DC50 [2] [nM] | DC50 [3] [nM] | Structure (SMILES) |
| --- | --- | --- | --- |
| < 100 | < 10 | < 1 | CCc1c(F)ccc2cc(O)cc(-c3ncc4c(N5CCC[C@@](C)(O)C5)nc(OC[C@@]56CCCN5[C@H](COC(=O)N5CC7(CCN(CC#Cc8ccc9c(c8)n(C)c(=O)n9C8CCC(=O)NC8=O)CC7)C5)CC6)nc4c3F)c12 (stereo partly drawn) [Compound 453, ((3S,7aS)-7a-(((7-(8-Ethyl-7-fluoro-3-hydroxynaphthalen-1-yl)-8-fluoro-4-((R)-3-hydroxy-3-methylpiperidin-1-yl)pyrido[4,3-d]pyrimidin-2-yl)oxy)methyl)hexahydro-1H-pyrrolizin-3-yl)methyl 7-(3-(1-(2,6-dioxopiperidin-3-yl)-3-methyl-2-oxo-2,3-dihydro-1H-benzo[d]imidazol-5-yl)prop-2-yn-1-yl)-2,7-diazaspiro[3.5]nonane-2-carboxylate] |
| < 100 | < 10 | < 1 | C#Cc1c(F)ccc2cc(O)cc(-c3ncc4c(N5CCC[C@@](C)(O)C5)nc(OC[C@@]56CCCN5[C@H](COC(=O)N5CCC7(CCC(CN8CCC(c9ccc%10c(c9)n(C)c(=O)n%10C9CCC(=O)NC9=O)CC8)CC7)C5)CC6)nc4c3F)c12 (stereo partly drawn) [Compound 454] |
| < 100 | < 10 | < 1 | CCc1c(F)ccc2cc(O)cc(-c3ncc4c(N5CCC[C@@](C)(O)C5)nc(OC[C@@]56CCCN5[C@H](COC(=O)N5CCC7(CCC(N8CCC(c9ccc%10c(c9)n(C)c(=O)n%10C9CCC(=O)NC9=O)CC8)C7)CC5)CC6)nc4c3F)c12 (stereo partly drawn) [Compound 455, ((3S,7aS)-7a-(((7-(8-ethyl-7-fluoro-3-hydroxynaphthalen-1-yl)-8-fluoro-4-((R)-3-hydroxy-3-methylpiperidin-1-yl)pyrido[4,3-d]pyrimidin-2-yl)oxy)methyl)hexahydro-1H-pyrrolizin-3-yl)methyl 2-(4-(1-(2,6-dioxopiperidin-3-yl)-3-methyl-2-oxo-2,3-dihydro-1H-benzo[d]imidazol-5-yl)piperidin-1-yl)-8-azaspiro[4.5]decane-8-carboxylate] |
| < 100 | < 10 | 1 to 10 | CCc1c(F)ccc2cc(O)cc(-c3ncc4c(N5CCC[C@@](C)(O)C5)nc(OC[C@@]56CCCN5[C@H](COC(=O)N5CCC7(CC5)CCN(C5CCN(c8ccc9c(c8)n(C)c(=O)n9C8CCC(=O)NC8=O)CC5)C7)CC6)nc4c3F)c12 (stereo partly drawn) [Compound 456, ((3S,7aS)-7a-(((7-(8-ethyl-7-fluoro-3-hydroxynaphthalen-1-yl)-8-fluoro-4-((R)-3-hydroxy-3-methylpiperidin-1-yl)pyrido[4,3-d]pyrimidin-2-yl)oxy)methyl)hexahydro-1H-pyrrolizin-3-yl)methyl 2-(1-(1-(2,6-dioxopiperidin-3-yl)-3-methyl-2-oxo-2,3-dihydro-1H-benzo[d]imidazol-5-yl)piperidin-4-yl)-2,8-diazaspiro[4.5]decane-8-carboxylate] |

More lines, now with the values behind:

| Structure (SMILES) | DC50 [1] [nM] | DC50 [2] [nM] | DC50 [3] [nM] |
| --- | --- | --- | --- |
| Cn1c(=O)n(C2CCC(=O)NC2=O)c2ccc(N3CCC(CN4CCN(C(=O)OC[C@@H]5CC[C@]6(COc7nc(N8CCC[C@@](C)(O)C8)c8cnc(-c9cc(O)cc%10ccc(F)cc9%10)c(F)c8n7)CCCN56)CC4)CC3)cc21 (stereo partly drawn) [Compound 445, ((3S,7aS)-7a-(((8-fluoro-7-(7-fluoro-3-hydroxynaphthalen-1-yl)-4-((R)-3-hydroxy-3-methylpiperidin-1-yl)pyrido[4,3-d]pyrimidin-2-yl)oxy)methyl)hexahydro-1H-pyrrolizin-3-yl)methyl 4-((1-(1-(2,6-dioxopiperidin-3-yl)-3-methyl-2-oxo-2,3-dihydro-1H-benzo[d]imidazol-5-yl)piperidin-4-yl)methyl)piperazine-1-carboxylate] | < 100 | < 10 | < 1 |
| Cn1c(=O)n(C2CCC(=O)NC2=O)c2ccc(C3CCN(CC4(F)CCN(C(=O)OC[C@@H]5CC[C@]6(COc7nc(N8CCC[C@@](C)(O)C8)c8cnc(-c9cc(O)cc%10ccc(F)cc9%10)c(F)c8n7)CCCN56)CC4)CC3)cc21 (stereo partly drawn) [Compound 446, ((3S,7aS)-7a-(((8-fluoro-7-(7-fluoro-3-hydroxynaphthalen-1-yl)-4-((R)-3-hydroxy-3-methylpiperidin-1-yl)pyrido[4,3-d]pyrimidin-2-yl)oxy)methyl)hexahydro-1H-pyrrolizin-3-yl)methyl 4-((4-(1-(2,6-dioxopiperidin-3-yl)-3-methyl-2-oxo-2,3-dihydro-1H-benzo[d]imidazol-5-yl)piperidin-1-yl)methyl)-4-fluoropiperidine-1-carboxylate] | < 100 | < 10 | < 1 |
| Cn1c(=O)n(C2CCC(=O)NC2=O)c2cc(F)c(C3CCN(CC4CCN(C(=O)OC[C@@H]5CC[C@]6(COc7nc(N8CCC[C@@](C)(O)C8)c8cnc(-c9cc(O)cc%10ccc(F)cc9%10)c(F)c8n7)CCCN56)CC4)CC3)cc21 (stereo partly drawn) [Compound 447, ((3S,7aS)-7a-(((8-fluoro-7-(7-fluoro-3-hydroxynaphthalen-1-yl)-4-((R)-3-hydroxy-3-methylpiperidin-1-yl)pyrido[4,3-d]pyrimidin-2-yl)oxy)methyl)hexahydro-1H-pyrrolizin-3-yl)methyl 4-((4-(1-(2,6-dioxopiperidin-3-yl)-6-fluoro-3-methyl-2-oxo-2,3-dihydro-1H-benzo[d]imidazol-5-yl)piperidin-1-yl)methyl)piperidine-1-carboxylate] | < 100 | < 10 | < 1 |
| CCc1c(F)ccc2cc(O)cc(-c3ncc4c(N5CCC[C@@](C)(O)C5)nc(OC[C@@]56CCCN5[C@H](COC(=O)N5CC7(CCC(CN8CCC(c9ccc%10c(c9)n(C)c(=O)n%10C9CCC(=O)NC9=O)CC8)CC7)C5)CC6)nc4c3F)c12 (stereo partly drawn) [Compound 448, ((3S,7aS)-7a-(((7-(8-ethyl-7-fluoro-3-hydroxynaphthalen-1-yl)-8-fluoro-4-((R)-3-hydroxy-3-methylpiperidin-1-yl)pyrido[4,3-d]pyrimidin-2-yl)oxy)methyl)hexahydro-1H-pyrrolizin-3-yl)methyl 7-((4-(1-(2,6-dioxopiperidin-3-yl)-3-methyl-2-oxo-2,3-dihydro-1H-benzo[d]imidazol-5-yl)piperidin-1-yl)methyl)-2-azaspiro[3.5]nonane-2-carboxylate] | < 100 | < 10 | < 1 |
| CCc1c(F)ccc2cc(O)cc(-c3ncc4c(N5CCC[C@@](C)(O)C5)nc(OC[C@@]56CCCN5[C@H](COC(=O)Nc5ccc(CN7CCC(c8ccc9c(c8)n(C)c(=O)n9C8CCC(=O)NC8=O)CC7)cc5)CC6)nc4c3F)c12 (stereo partly drawn) [Compound 450, ((3S,7aS)-7a-(((7-(8-ethyl-7-fluoro-3-hydroxynaphthalen-1-yl)-8-fluoro-4-((R)-3-hydroxy-3-methylpiperidin-1-yl)pyrido[4,3-d]pyrimidin-2-yl)oxy)methyl)hexahydro-1H-pyrrolizin-3-yl)methyl (4-((4-(1-(2,6-dioxopiperidin-3-yl)-3-methyl-2-oxo-2,3-dihydro-1H-benzo[d]imidazol-5-yl)piperidin-1-yl)methyl)phenyl)carbamate] | < 100 | < 10 | < 1 |
| CCc1c(F)ccc2cc(O)cc(-c3ncc4c(N5CCC[C@@](C)(O)C5)nc(OC[C@@]56CCCN5[C@H](COC(=O)Nc5ccc(N7CCC(c8ccc9c(c8)n(C)c(=O)n9C8CCC(=O)NC8=O)CC7)cc5)CC6)nc4c3F)c12 (stereo partly drawn) [Compound 451, ((3S,7aS)-7a-(((7-(8-ethyl-7-fluoro-3-hydroxynaphthalen-1-yl)-8-fluoro-4-((R)-3-hydroxy-3-methylpiperidin-1-yl)pyrido[4,3-d]pyrimidin-2-yl)oxy)methyl)hexahydro-1H-pyrrolizin-3-yl)methyl (4-(4-(1-(2,6-dioxopiperidin-3-yl)-3-methyl-2-oxo-2,3-dihydro-1H-benzo[d]imidazol-5-yl)piperidin-1-yl)phenyl)carbamate] | < 100 | < 10 | < 1 |
| CCc1c(F)ccc2cc(O)cc(-c3ncc4c(N5CCC[C@@](C)(O)C5)nc(OC[C@@]56CCCN5[C@H](COC(=O)N5CC7(CCN(CC8CCN(c9ccc%10c(c9)n(C)c(=O)n%10C9CCC(=O)NC9=O)CC8)CC7)C5)CC6)nc4c3F)c12 (stereo partly drawn) [Compound 452, ((3S,7aS)-7a-(((7-(8-ethyl-7-fluoro-3-hydroxynaphthalen-1-yl)-8-fluoro-4-((R)-3-hydroxy-3-methylpiperidin-1-yl)pyrido[4,3-d]pyrimidin-2-yl)oxy)methyl)hexahydro-1H-pyrrolizin-3-yl)methyl 7-((1-(1-(2,6-dioxopiperidin-3-yl)-3-methyl-2-oxo-2,3-dihydro-1H-benzo[d]imidazol-5-yl)piperidin-4-yl)methyl)-2,7-diazaspiro[3.5]nonane-2-carboxylate] | < 100 | < 10 | < 1 |
